Measured values published in patent US11926604B2, “Myelination stimulator compounds, and methods of treatment” (priority 2018, dated 2024).

Key:
mouse brain slices = assay: Myelination in brain slices (MBP, O1 immunostaining); format: cell-based; conditions: brain slices incubated 5 days in culture, MBP labeling
Experimental: FIG. 2. depicts the effect of compounds on myelination stimulation. FIG. 2. A. Myelin basic protein labeling (green) of brain slices incubated with compounds for 5 days in culture. *, p<0.05 vs vehicle. ANOVA. Data shown are representative at least 3 slices per treatment group per study, in at least 3 separate studies. (B) Vehicle, (C) K-261-0298. Note increased labeling.
Before undertaking in vivo testing, we assessed the ability of the lead compounds to promote OL development and myelination using mouse brain slices, as reported^62,63. Each compound and concentration was tested in triplicate, in at least three separate studies. Slices were collected at 1, 5, 9, or 13 days in vitro, fixed in 4% paraformaldehyde, and used for immunohistochemical staining.

mice [1] = assay: Single-dose dose-range and toxicity study in mice; format: in vivo
Experimental: (§1) Dose-range and toxicity studies in mice. In consultation with UF veterinary staff and the IACUC committee, toxicity studies were performed. […] Compounds were dissolved in 100% DMSO and diluted with 0.9% NaCl before injecting. The IP route (100-500 ul) was used to treat 8-10 week old female adults. We used females because in some studies they are more sensitive to toxins. Experiments were performed with the 2 compounds that had the largest effect on myelination in the brain slice cultures, including K261-0298 and K261-0310. Mice were treated with a single dose.

mice [2] = assay: Multiday toxicity study, 10 days; format: in vivo, mouse; conditions: 100 mg/kg for 10 days
mouse pups = assay: Ten-day treatment of mouse pups from P2, safety and pulmonary hypertension; format: in vivo
Experimental: In addition, we also treated mouse pups starting on day P2 for ten days with 100 mg/kg/day K261-0298 or vehicle. […] We also evaluated for possible pulmonary hypertension.

[3] = Toxicokinetic sample collection, HPLC compound levels; format: in vivo, mouse; conditions: single i.p. injection of 100 mg/kg, mice
Experimental: Toxicokinetic Sample Collection: After the above studies, compound kinetics were examined. Male and female mice at approximately 60 days of age were used (n=8 mice per sex). […] Samples were collected prior to dose and at 30 minutes, 2, 4, 8 and 24 hours after. Compound levels were determined by High Pressure Liquid Chromatography (HPLC) at UF.

C57BL/6 mice [4] = assay: Myelination in newborn mice in normoxia; format: in vivo, mouse
Excerpt: FIG. 3. depicts results of studies of myelination in newborn mice in normoxia. FIG. 3. Myelin basic protein (MBP), O4 and O1 labeling of coronal forebrain at level of corpus callosum (cc) of newborn mice treated with vehicle or drug (K261-298) from P2 to P12 in room air. Data shown are representative of at least 5 pups per treatment group. cc, corpus callosum. Scale bar=100 um.
After adult studies, pups were studied at developmental stages equivalent to preterm infants to assess effects on myelination, as reported by us^54. C57BL/6 mice were reared in room air from P2 to P12, and treated daily with the compound or vehicle. […] K261-0298 (100 mg/kg) was given by injection, as above.

hypoxia-exposed mouse = assay: Chronic sublethal hypoxia model of PWMI, ventriculomegaly; format: in vivo; parameters: ventricle size: unit not given here
Excerpt: FIG. 4. Depicts results of studies of myelination in an animal model of white matter injury. […] Dark-field, hemi-coronal sections at the same brain levels shown. Data shown are representative of 4 pups per treatment group. Arrow depict lateral ventricles. ac, anterior commisure. Note smaller ventricle size in the drug-treated pup. Scale bar=500 um.
We have initiated preclinical testing using the chronic sublethal hypoxia model of PWMI. Mice were reared under hypoxic or normoxic conditions from P2 to P12, as reported 64. At P2, litters were placed in a Plexiglas chamber in which ambient O2 levels are maintained at 10.0±0.3% O2. Normoxic animals were exposed to room air. To date we tested K261-0298 at 100 mg/kg, and mice were treated once per day from P2 to P12. At the end of the treatment period mice were examined for ventriculomegaly, as reported^64,65. […] Compared with normoxic controls^64,66, ventricle sizes in the drug-treated hypoxia animals were similar.

[5] = format: physicochemical
Experimental: as §1

C57BL/6 mice [6] = conditions: cited from earlier work
[7] = diazoxide, basis for dose choice; cited from earlier work
model of PWMI = conditions: neonatal therapy; cited from earlier work
[8] = pups from P2, ten days, 100 mg/kg/day
[9] = 100 mg/kg daily P2 to P12, room air, n=6

With `CCOCCCNC(=O)CCC1=Nc2ccccc2S(=O)(=O)N1` [Compound K261-0298, 3-(1,1-dioxido-2H-benzo[e][1,2,4]thiadiazin-3-yl)-N-(3-ethoxypropyl)propanamide] the myelination in vitro (mouse brain slices) was “stimulates myelination in vitro”, the tolerated single dose (mice [1]; IP, 8-10 week old female mice) was “up to 400 mg/kg” and the “adverse effects on animal behavior or weight” value (mice [2]) was “no adverse effects on animal behavior or weight loss”. For the same compound, the “histopathological analysis of major organs” value (mice [2]) was “did not reveal evidence of damage in any major organs”, the gross necropsy (mice [2]; 5 treated mice) was “no gross malformations were observed” and the “behavior or weight gain versus vehicle” value (mouse pups; [8]) was “without any differences in behavior or weight gain”. The survival (mouse pups; [8]) was “all survived to the end of treatment”, the pulmonary hypertension (mouse pups; ten days of treatment in pups, juveniles, adults) was “does not appear that this compound induces pulmonary hypertension” and the half-life ([3]; both sexes, mouse, in vivo, ip, read-out: circulating half-life (converted)) was 2.2 h. The peak drug levels [3] was 21.5 ± 2.3 µM, the “decrease in O4 labeling vs. vehicle” value (C57BL/6 mice [4]; [9]) was 44+/−4% and the “increase in MBP labeling vs. vehicle” value (C57BL/6 mice [4]; [9]) was 27+/−4%. For the same compound, the “increase in O1 labeling vs. vehicle” value (C57BL/6 mice [4]; [9]) was 26+/−5%, the “O1 labeling (FIG. 3)” value (C57BL/6 mice [4]; P2 to P12 in room air, p<0.02) was “increase in O1 labeling” and the “O4 expression (FIG. 3)” value (C57BL/6 mice [4]; P2 to P12 in room air, p<0.02) was “reduction in O4 expression”. For the same compound, the “bioavailability to the brain / blood-brain-barrier penetration” value (C57BL/6 mice [4]; inferred from changes in CNS myelination) was “suggests that there is bioavailability of the compound to the brain”, the “ventricle sizes compared with normoxic controls” value (hypoxia-exposed mouse; drug-treated hypoxia animals) was “similar” and the ventricle size (hypoxia-exposed mouse; hypoxia, 100 mg/kg once per day P2 to P12, n=4) was 0.0054+/−0.00013. The ventriculomegaly vs. vehicle (hypoxia-exposed mouse; hypoxia, 100 mg/kg once per day P2 to P12, p<0.03, 100 mg/kg) was “marked reduction in ventriculomegaly” and the “solubility behaviour in dosing solution” value [5] was “more favorable solubility properties”.
In the case of `CC(=O)c1ccc(N2CCN(C(=O)CCC3=Nc4ccccc4S(=O)(=O)N3)CC2)cc1` [Compound K261-0310, 1-(4-(4-acetylphenyl)piperazin-1-yl)-3-(1,1-dioxido-2H-benzo[e][1,2,4]thiadiazin-3-yl)propan-1-one], the “adverse effects at behavioral or gross necropsy levels” value (mice [1]; mouse, in vivo, ip, 50 mg/kg) is reported as “no adverse effects observed” and the “solubility behaviour in dosing solution” value [5] is reported as “precipitated out of solution at higher concentrations”.
In the case of `CC1=NS(=O)(=O)c2cc(Cl)ccc2N1` [diazoxide], the “myelination in room air (earlier diazoxide studies)” value (C57BL/6 mice [6]) is listed as “increased myelination”, the LD50 [7] is listed as 265 to 392 mg/kg and the myelination (model of PWMI) is listed as “markedly improves myelination”. The neurocognitive function (model of PWMI) was “improves neurocognitive function” and the ventriculomegaly (model of PWMI) was “reduces ventriculomegaly”.
